The source of these data is patent US11952365B2, “Anti-viral compounds” (Aligos Therapeutics, Inc., priority 2020, dated 2024).

Series [1] in a line: Cytotoxicity plates without OC43 virus (cell-titer-glo). In kind it is cell-based, human. The following applies: human; HeLa cells without OC43 virus, class symbols. The method, boiled down: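 HeLa cells seeded overnight, then treated with serially diluted compounds in 2% FBS EMEM, uninfected, in parallel with the OC43 antiviral plates. Incubated 6 days at 33 °C; viability read by CellTiter-Glo luminescence.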

For the next series, the target named is 3CLpro (Severe acute respiratory syndrome coronavirus 2, UniProt P0DTD1). The series can be described thus: SARS-CoV-2 3CLpro protease assay (duplex, SAMDI-MS). In kind it is biochemical. Details: For the duplex assay, 3CLpro and HRV3C was added. As to conditions: 3CLpro, 30 mins preincubation, read-out: SARS-Cov-2 IC50.
The target of the next series is HRV3C (Human rhinovirus 14, UniProt P03303). Kind of series: HRV3C protease assay (duplex, SAMDI-MS). In kind it is biochemical, HRV. As to conditions: HRV3C, 30 mins preincubation, read-out: HRV IC50. Put shortly: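 Steps: enzymes (HRV3C plus 3CLpro) and compound preincubated 30 min; two peptide substrates added; 30 min reaction at ambient temperature; formic acid quench; SAMDI capture and reflector-positive TOF analysis. Product quantified against internal standard peptides. IC50 by four-parameter equation.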

In a further series the target is T1, human cathepsin L (Homo sapiens, UniProt P07711).
T1 construct: purchased R&D Systems
The series can be described thus: cathepsin L assay. In kind it is biochemical. The following applies: 10 pM human cathepsin L, Z-FR-AMC 2 μM, class symbols. The method, boiled down:
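Human cathepsin L at 10 pM was preincubated 30 min with compound, then reaction started with Z-FR-AMC (2 μM final). Fluorescence (355/460 nm) read every 2 min for 30 min; IC50 from four-parameter curve fit.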

Series [2] in a line: in vitro. As to conditions: human.
Series [3] can be described thus: in vitro. As to conditions: African green monkey, VeroE6 + CP (CC50), Vero E6-eGFP cells with CP-100356, absence of virus, MTS.
Series [4] deals with SARS-CoV-2-GHB-03021/2020. The series can be described thus: microbe, parasite or virus in culture. In kind it is cell-based. The following applies: Severe acute respiratory syndrome coronavirus 2, Vero C1008, 96 h; read-out: VeroE6 + CP (EC50).
Series [5] relates to SARS-CoV-2-GHB-03021/2020. The series can be described thus: SARS-CoV-2 Infection Model in Huh7 Cells. In kind it is cell-based. The following applies: Severe acute respiratory syndrome coronavirus 2, Huh-7, 96 h, SARS-CoV-2, day 4 p.i., MTS.
In series [6] the test system is human beta-coronavirus OC43. The series can be described thus: microbe, parasite or virus in culture. In kind it is cell-based. As to conditions: Betacoronavirus 1, OC43, HeLa, 144 h, OC43 in HeLa cells, 6 days at 33° C., read-out: EC50.

Each structure is given as a SMILES string. pEC50, pIC50: −log10 of the molar value. Read-outs that look alike come from different tables or passages of the source.

`COc1cccc2[nH]c(C(=O)N3CCc4ccccc4[C@H]3C(=O)N[C@@H](C[C@@H]3CCNC3=O)C(=O)CO)cc12` [Compound 106]: in series [1], the CC50 at 6 days was above 10 µM. Further, the results for the pIC50 on 3CLpro (class symbols), at HRV3C (class symbols) and against human cathepsin L were 5.70 to 6.70, 4.70 to 5.70 and at most 5.00, respectively. The results for the CC50 in the series “in vitro [2]” and in the series “in vitro [3]” (numeric bounds) were above 10 µM and above 50 µM, respectively. Also, the pEC50 in series [4] was 4.00 to 5.00; in series [5] (class symbols), 4.00 to 5.00; in [6] (class symbols) it was 5.00 to 6.00.

Compound `COc1cccc2[nH]c(C(=O)N3C[C@@H]4CCC[C@@H]4[C@H]3C(=O)N[C@@H](C[C@@H]3CCNC3=O)C(=O)C(=O)NCCO)cc12` [Compound 107, (1S, 3aR, 6aS)—N—((S)-4-((2-hydroxyethyl)amino)-3,4-dioxo-1-((S)-2-oxopyrrolidin-3-yl)butan-2-yl)-2-(4-methoxy-1H-indole-2-carbonyl)octahydrocyclopenta[c]pyrrole-1-carboxamide] came in with a CC50 at 6 days in series [1] above 10 µM. The pIC50 at 3CLpro (class symbols) was above 7.70; on HRV3C (class symbols) it was 5.70 to 6.70; against human cathepsin L it was at most 5.00. The results for the CC50 in “in vitro [2]” and in “in vitro [3]” (numeric bounds) were above 50 µM and above 100 µM, respectively. The figures for the pEC50 in [4], in series [5] (class symbols) and in [6] (bound) were 4.00 to 5.00, 4.00 to 5.00 and below 5.00, respectively.

Regarding `O=C1NCC[C@H]1C[C@H](NC(=O)[C@@H]1[C@H]2CCC[C@H]2CN1C(=O)c1cc2c3c(ccc2[nH]1)CCO3)C(=O)CO` [Compound 108, (1S,3aR,6aS)-2-{2H,3H,6H-furo[2,3-e]indole-7-carbonyl}-N-[(2S)-4-hydroxy-3-oxo-1-[(3S)-2-oxopyrrolidin-3-yl]butan-2-yl]-hexahydro-1H-cyclopenta[c]pyrrole-1-carboxamide], the CC50 at 6 days in series [1] was above 10 µM. The pIC50 at 3CLpro (class symbols) was 6.70 to 7.70; on HRV3C (bound), below 5.00; at human cathepsin L, at most 5.00. Moreover, the CC50 in “in vitro [2]” and in the series “in vitro [3]” (numeric bounds) was above 50 µM in each case. Also, the negative-log EC50 (pEC50) in series [4] is 5.00 to 6.00; in series [5] (class symbols), 4.00 to 5.00; in series [6] (class symbols), 6.00 to 7.00.

On to `COc1cccc2[nH]c(C(=O)N3C[C@@H]4CCC[C@@H]4[C@H]3C(=O)N[C@@H](C[C@@H]3CCNC3=O)C(=O)C(=O)N(C)C)cc12` [Compound 110], for which, in series [1], the CC50 at 6 days is above 10 µM. Besides, the pIC50 at 3CLpro (bound) is below 5.00; on HRV3C (bound) it was below 5.00; at human cathepsin L, at most 5.00. The CC50 in the series “in vitro [2]” and in the series “in vitro [3]” (numeric bounds) was above 50 µM in each case. For the same compound, the figures for the negative logarithm of the EC50 (pEC50) in series [4], in series [5] (numeric bounds) and in series [6] (bound) were below 4.30, below 4.30 and below 5.00, respectively.

As to `O=C(NCc1ccccc1)C(=O)[C@H](Cc1cccnc1)NC(=O)[C@@H]1CC2(CC2)CN1C(=O)c1cc2ccccc2[nH]1` [Compound 111, (S)—N—((S)-4-(benzylamino)-3,4-dioxo-1-(pyridin-3-yl)butan-2-yl)-5-(1H-indole-2-carbonyl)-5-azaspiro[2.4]heptane-6-carboxamide], in series [1], the CC50 at 6 days was above 10 µM. Further, the pIC50 is below 5.00 on 3CLpro (bound), below 5.00 on HRV3C (bound) and above 7.00 against human cathepsin L. Further, the CC50 is above 10 µM in the series “in vitro [2]” and above 100 µM in “in vitro [3]” (numeric bounds). In addition, the negative logarithm of the EC50 (pEC50) in series [4] is below 4.00; in series [5] (class symbols), 5.00 to 6.00; in series [6] (class symbols), 4.00 to 5.00.

`COc1cccc2[nH]c(C(=O)N3C[C@@H]4CCC[C@@H]4[C@H]3C(=O)N[C@@H](CN3CC[C@H](O)C3=O)C(=O)C(=O)NC3CC3)cc12` [Compound 115, (1S,3aR,6aS)—N—((S)-4-(cyclopropylamino)-1-((S)-3-hydroxy-2-oxopyrrolidin-1-yl)-3,4-dioxobutan-2-yl)-2-(4-methoxy-1H-indole-2-carbonyl)octahydrocyclopenta[c]pyrrole-1-carboxamide]: in series [1], the CC50 at 6 days is above 10 µM. Further, the pIC50 on 3CLpro (class symbols) is 4.70 to 5.70; on HRV3C (bound), below 5.00; at human cathepsin L, at most 5.00. Besides, the CC50 in the series “in vitro [2]” was above 10 µM; in the series “in vitro [3]” (numeric bounds), above 50 µM. Also, the pEC50 in series [4] is below 4.30; in [5] (numeric bounds), below 4.30; in series [6] (bound), below 5.00.

In turn, `O=C1NCC[C@H]1C[C@H](NC(=O)[C@@H]1[C@H]2CCC[C@H]2CN1C(=O)c1cc2c(Cl)ccc(C(F)(F)F)c2[nH]1)C(=O)CO` [Compound 117, (1S,3aR,6aS)-2-[4-chloro-7-(trifluoromethyl)-1H-indole-2-carbonyl]-N-[(2S)-4-hydroxy-3-oxo-1-[(3S)-2-oxopyrrolidin-3-yl]butan-2-yl]-hexahydro-1H-cyclopenta[c]pyrrole-1-carboxamide] came in with a CC50 at 6 days in [1] above 10 µM. Also, the pIC50 at 3CLpro (class symbols) was 6.70 to 7.70; on HRV3C (bound), below 5.00; against human cathepsin L, at most 5.00. For the same compound, the CC50 in the series “in vitro [2]” and in the series “in vitro [3]” (numeric bounds) was above 50 µM in each case. Besides, the pEC50 was above 6.00 in series [4], above 6.00 in series [5] (class symbols) and 6.00 to 7.00 in series [6] (class symbols).

In turn, `COc1cccc2[nH]c(C(=O)N3C[C@@H]4CCC[C@@H]4[C@H]3C(=O)N[C@@H](CN3CCCNC3=O)C(=O)C(=O)NC3CC3)cc12` [Compound 118] registered a CC50 at 6 days in series [1] above 10 µM. Moreover, the figures for the pIC50 at 3CLpro (class symbols), at HRV3C (bound) and on human cathepsin L were 4.70 to 5.70, below 5.00 and at most 5.00, respectively. The CC50 in the series “in vitro [2]” is above 10 µM; in the series “in vitro [3]” (numeric bounds) it was above 50 µM. The negative logarithm of the EC50 (pEC50) is below 4.30 in [4], below 4.30 in series [5] (numeric bounds) and below 5.00 in [6] (bound).

With `COc1cccc2[nH]c(C(=O)N3C[C@@H]4CCC[C@@H]4[C@H]3C(=O)N[C@@H](Cn3cc[nH]c3=O)C(=O)C(=O)NC3CC3)cc12` [Compound 119], in series [1], the CC50 at 6 days is above 10 µM. For the same compound, the pIC50 at 3CLpro (class symbols) is 5.70 to 6.70; on HRV3C (bound), below 5.00; against human cathepsin L, at most 5.00. Further, the CC50 in the series “in vitro [2]” and in the series “in vitro [3]” (numeric bounds) was above 50 µM each time. Also, the pEC50 in series [4] is below 4.30; in series [5] (numeric bounds) it was below 4.30; in [6] (bound), below 5.00.

`O=C1NCC[C@H]1C[C@H](NC(=O)[C@@H]1[C@H]2CCC[C@H]2CN1C(=O)c1cc2c(Cl)cc(-c3ccccc3)cc2[nH]1)C(=O)CO` [Compound 120, (1S,3aR,6aS)-2-(4-chloro-6-phenyl-1H-indole-2-carbonyl)-N-[(2S)-4-hydroxy-3-oxo-1-[(3S)-2-oxopyrrolidin-3-yl]butan-2-yl]-hexahydro-1H-cyclopenta[c]pyrrole-1-carboxamide] returned a CC50 at 6 days in series [1] above 10 µM. In addition, the pIC50 on 3CLpro (class symbols) is above 7.70; on HRV3C (bound), below 5.00; against human cathepsin L it was at most 5.00. The CC50 in “in vitro [2]” is 1 to 10 µM; in the series “in vitro [3]” (class symbols), above 10 µM. Further, the pEC50 is above 6.00 in series [4], above 6.00 in [5] (class symbols) and above 7.00 in series [6] (class symbols).

Compound `O=C1NCC[C@H]1C[C@H](NC(=O)[C@@H]1[C@H]2CCC[C@H]2CN1C(=O)c1cc2c(Cl)c(F)c(Cl)cc2[nH]1)C(=O)CO` [Compound 121, (1S,3aR,6aS)-2-(4,6-dichloro-5-fluoro-1H-indole-2-carbonyl)-N—((S)-4-hydroxy-3-oxo-1-((S)-2-oxopyrrolidin-3-yl)butan-2-yl)octahydrocyclopenta[c]pyrrole-1-carboxamide] had a CC50 at 6 days in series [1] above 10 µM. Further, the values for the pIC50 at 3CLpro (class symbols), on HRV3C (bound) and against human cathepsin L were 6.70 to 7.70, below 5.00 and at most 5.00, respectively. The CC50 in “in vitro [2]” and in “in vitro [3]” (numeric bounds) was above 50 µM in each case. Besides, the pEC50 was 5.00 to 6.00 in series [4], above 6.00 in series [5] (class symbols) and above 7.00 in series [6] (class symbols).

As to `O=C1NCC[C@H]1C[C@H](NC(=O)[C@@H]1[C@H]2CCC[C@H]2CN1C(=O)c1cc2c(Cl)c(F)cc(Cl)c2[nH]1)C(=O)CO` [Compound 122, (1S,3aR,6aS)-2-(4,7-dichloro-5-fluoro-1H-indole-2-carbonyl)-N-[(2S)-4-hydroxy-3-oxo-1-[(3S)-2-oxopyrrolidin-3-yl]butan-2-yl]-hexahydro-1H-cyclopenta[c]pyrrole-1-carboxamide], the CC50 at 6 days in [1] is above 10 µM. Also, the pIC50 at 3CLpro (class symbols) was 6.70 to 7.70; on HRV3C (bound), below 5.00; at human cathepsin L, at most 5.00. Further, the CC50 in the series “in vitro [2]” and in “in vitro [3]” (numeric bounds) was above 50 µM throughout. Moreover, the pEC50 is above 6.00 in series [4], above 6.00 in [5] (class symbols) and above 7.00 in [6] (class symbols).
